Source: patent US20240374520A1, “PROTEOLIPID VESICLES FORMULATED WITH FUSION ASSOCIATED SMALL TRANSMEMBRANE PROTEINS” (priority 2020, published 2024)

Tested on: WI-38 cells
Type: cell-based, human
Conditions: Alamar Blue, 72 hours after addition to WI-38 cells
Description: Conventional LNPs rely on endosomal escape for intracellular delivery, which results in limited nucleic acid release into the cytosol and is one of the major limitations of LNPs formulated for gene therapy (13, 20, 41). […] These lipids were utilized in a PLV formulation to promote nucleic acid encapsulation through charge neutralization. The optimal molar ratio of DODAP to pDNA was assessed by measuring the delivery and subsequent expression of DNA-encoded firefly luciferase (pDNA-FLuc) in retinal pigmented epithelial (ARPE-19) cells.
Cell cultures in a 96 well plates were treated with test compounds at indicated concentrations. After 24-96 hours, a 1/10 volume of Alamar blue solution (440 μM Resazurin; Sigma R7017 5GM) was added to the cells in culture medium and incubated for 2-4 hours at 37° C. 5% CO2. The Omega Fluostar (BMG LabTech) plate reader was used to measure the fluorescence (excitation wavelength of 540 nm and emission at 590 nm) of the treated cells. Cell viability was calculated using the following formula: […]

Structure (SMILES)	tolerability / toxicity of cationic and ionizable lipids
CCCCCCCC/C=C\CCCCCCCC(=O)OCC(CN(C)C)OC(=O)CCCCCCC/C=C\CCCCCCCC (centres unmarked) [DODAP, 1,2-dioleoyl-3-dimethylammonium-propane]	most favorable tolerability
CCCCCCCC/C=C\CCCCCCCC(=O)OCC(C[N+](C)(C)C)OC(=O)CCCCCCC/C=C\CCCCCCCC (centres unmarked) [DOTAP, 1,2-dioleoyl-3-trimethylammonium-propane]	slightly higher toxicity
